# According to article PMC10183817, “Inhibition of ATP synthase reverse activity restores energy homeostasis in mitochondrial pathologies” (The EMBO Journal, 2023):
# Columns and labels:
# [1] = molecular target: T1, purified bovine CV (Complex V, F-type ATP synthase) (Bos taurus, UniProt P00829+P19483); assay: competition with ATPIF1-GFP for CV tetramer, blue native gel fluorescence; conditions: indirect binding read-out; prevents ATPIF1-GFP binding, does not displace bound ATPIF1; room temperature
# T1 construct: gene ATP5F1A; native purification from bovine heart; monomer (LMNG), tetramer (GDN) and oligomer preparations; with ATP synthase F(1) complex subunit gamma, mitochondrial; ATP synthase F(1) complex subunit delta, mitochondrial; ATP synthase F(1) complex subunit epsilon, mitochondrial; ATP synthase peripheral stalk subunit OSCP, mitochondrial; ATP synthase peripheral stalk subunit b, mitochondrial; ATP synthase peripheral stalk subunit d, mitochondrial; ATP synthase peripheral stalk subunit F6, mitochondrial; ATP synthase F(0) complex subunit a; ATP synthase F(0) complex subunit 8; ATP synthase F(0) complex subunit C1, mitochondrial
# [2] = molecular target: T1, purified bovine CV (Complex V, F-type ATP synthase); assay: in-gel ATP hydrolysis, blue native gel, purified CV; assay type: biochemical; conditions: monomer, tetramer and oligomers, also F1 subcomplex; independent of the ATPIF1 amount
# [3] = molecular target: T2, mitochondrial ATP synthase (F1F0ATPase, Complex V, CV) (Mus musculus, UniProt P56480+Q03265); assay: HyFS: acidification rate (Seahorse XF96), frozen heart mitochondria; assay type: biochemical; conditions: EPI 100 nM; ATP 20 mM; pH 7.2; MAS buffer; partial inhibition, ATP synthesis not impaired
# T2 construct: gene Atp5f1a; native fully assembled complex in isolated mouse heart mitochondria (frozen/thawed, or separated by blue native gel); with ATP synthase F(1) complex subunit gamma, mitochondrial; ATP synthase F(1) complex subunit delta, mitochondrial; ATP synthase F(1) complex subunit epsilon, mitochondrial; ATP synthase peripheral stalk subunit OSCP, mitochondrial; ATP synthase peripheral stalk subunit b, mitochondrial; ATP synthase peripheral stalk subunit d, mitochondrial; ATP synthase peripheral stalk subunit F6, mitochondrial; ATP synthase F(0) complex subunit a; ATP synthase F(0) complex subunit 8; ATP synthase F(0) complex subunit C1, mitochondrial
# [4] = molecular target: T2, mitochondrial ATP synthase (F1F0ATPase, Complex V, CV); assay: acidification rate (Seahorse XF96), isolated heart mitochondria; assay type: biochemical; conditions: ATP 20 mM; pH 7.2; oligomycin-sensitive
smiles,measurement,setting,value
"Oc1cc(O)c2c(c1)O[C@@H](c1ccc(O)c(O)c1)[C@@H](O)C2 [EPI, (+)-Epicatechin]","competition with ATPIF1-GFP for CV tetramer, blue native gel fluorescence",[1],"In both purified tetramers and isolated mitochondria, EPI prevented the binding of ATPIF1‐GFP"
same,"in-gel ATP hydrolysis, blue native gel, purified CV",[2],We found that EPI inhibited ATP hydrolysis independently of the amount of ATPIF1
same,% inhibition,[3],~ 30%
Nc1ncnc2c1ncn2[C@@H]1O[C@H](COP(=O)(O)OP(=O)(O)OP(=O)(O)O)[C@@H](O)[C@H]1O [ATP],"acidification rate (Seahorse XF96), isolated heart mitochondria",[4],addition of ATP resulted in a sharp increase in proton release that was oligomycin sensitive
